Results on 13 compounds are retold here after patent US20160102073A1, “2-HYDROXYMETHYL-SUBSTITUTED OREXIN RECEPTOR ANTAGONISTS” (MERCK SHARP & DOHME CORP., priority 2013, published 2016).

Broadly, the IC50 is the concentration that inhibits the measured activity by half. Low readings indicate greater potency, high ones weaker potency.

Assay [1] concerns the target T1, human orexin-1 receptor (hOX1R) (Homo sapiens, UniProt O43613).
T1 construct: expressed in transfected cells; host or cells: Chinese hamster ovary (CHO) cells, grown under G418 selection
T1 sequence (O43613 1-425): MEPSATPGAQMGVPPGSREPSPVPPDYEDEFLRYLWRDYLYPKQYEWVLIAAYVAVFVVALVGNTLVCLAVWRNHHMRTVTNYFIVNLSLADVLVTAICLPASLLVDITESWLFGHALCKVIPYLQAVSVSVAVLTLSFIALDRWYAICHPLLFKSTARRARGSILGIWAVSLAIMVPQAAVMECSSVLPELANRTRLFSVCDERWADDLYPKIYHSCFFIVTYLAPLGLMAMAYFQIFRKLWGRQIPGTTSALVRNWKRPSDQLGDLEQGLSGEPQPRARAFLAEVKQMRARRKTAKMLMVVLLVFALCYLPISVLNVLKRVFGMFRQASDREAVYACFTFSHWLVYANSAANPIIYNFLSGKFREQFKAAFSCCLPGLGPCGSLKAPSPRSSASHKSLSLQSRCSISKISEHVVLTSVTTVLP
The assay is described as follows: FLIPR Ca2+ Flux Assay, CHO cells expressing hOX1R. Format: cell-based. The note with it: agonist 70 pM Ala-6,12 orexin-A. The protocol:
(§1) Chinese hamster ovary (CHO) cells expressing the human orexin-1 receptor (hOX1R) or the human orexin-2 receptor (hOX2R) were grown in Iscove's modified DMEM containing 2 mM L-glutamine, […], 1% hypoxanthine-thymidine supplement, 100 U/ml penicillin, 100 μg/ml streptomycin and 10% heat-inactivated fetal calf serum (FCS). The cells were seeded at 20,000 cells/well into Becton-Dickinson black 384-well clear bottom sterile plates coated with poly-D-lysine. All reagents were from GIBCO-Invitrogen Corp. The seeded plates were incubated overnight at 37° C. and 5% CO2. Ala-6,12 human orexin-A, used as the agonist, was prepared as a 1 mM stock solution in 1% bovine serum albumin (BSA) and diluted in assay buffer (HBSS containing 20 mM HEPES, 0.1% BSA and 2.5 mM probenecid, pH7.4) for use in the assay at a final concentration of 70 pM. Test compounds were prepared as 10 mM stock solution in DMSO, then diluted in 384-well plates, first in DMSO, then assay buffer.
On the day of the assay, cells were washed 3× with 100 μl assay buffer and then incubated for 60 minutes (37° C., 5% CO2) in 60 μl assay buffer containing 1 μM Fluo-4AM ester, 0.02% pluronic acid, and 1% BSA. The dye loading solution was then aspirated and cells were washed 3× with 100 μl assay buffer. 30 μl of that same buffer was left in each well. Within the Fluorescent Imaging Plate Reader (FLIPR, Molecular Devices), test compounds were added to the plate in a volume of 25 μl, incubated for 5 minutes, and then 25 μl of agonist was added. Fluorescence was measured for each well at 1 second intervals for 5 minutes, and the height of each fluorescence peak was compared to the height of the fluorescence peak induced by 70 pM of Ala-6,12 orexin-A with buffer in place of test compound.

The target of assay [2] is T2, human orexin-2 receptor (hOX2R) (Homo sapiens, UniProt O43614).
T2 construct: expressed in transfected cells; host or cells: Chinese hamster ovary (CHO) cells, grown under G418 selection
T2 sequence (O43614 1-444): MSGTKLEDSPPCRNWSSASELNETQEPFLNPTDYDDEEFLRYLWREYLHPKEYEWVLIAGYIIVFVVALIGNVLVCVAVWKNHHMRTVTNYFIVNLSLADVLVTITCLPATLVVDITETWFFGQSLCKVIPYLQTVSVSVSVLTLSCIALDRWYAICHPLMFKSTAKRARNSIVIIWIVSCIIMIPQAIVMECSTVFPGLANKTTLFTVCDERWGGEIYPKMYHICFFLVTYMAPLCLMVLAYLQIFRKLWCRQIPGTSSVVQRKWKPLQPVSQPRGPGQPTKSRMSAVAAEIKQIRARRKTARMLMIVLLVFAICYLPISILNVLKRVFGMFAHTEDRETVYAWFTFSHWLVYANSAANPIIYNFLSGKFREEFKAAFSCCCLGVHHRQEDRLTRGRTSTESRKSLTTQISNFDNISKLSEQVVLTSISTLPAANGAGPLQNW
Briefly: FLIPR Ca2+ Flux Assay, CHO cells expressing hOX2R. The note with it: agonist 70 pM Ala-6,12 orexin-A. The class given is cell-based. The protocol:
The utility of the compounds in accordance with the present invention as orexin receptor OX1R and/or OX2R antagonists may be readily determined without undue experimentation by methodology well known in the art, including the “FLIPR Ca^2+ Flux Assay” (Okumura et al., Biochem. Biophys. Res. Comm. 280:976-981, 2001). In a typical experiment the OX1 and OX2 receptor antagonistic activity of the compounds of the present invention was determined in accordance with the following experimental method. For intracellular calcium measurements, Chinese hamster ovary (CHO) cells expressing the rat orexin-1 receptor or the human orexin-2 receptor, are grown in Iscove's modified DMEM containing 2 mM L-glutamine, […], 1% hypoxanthine-thymidine supplement, 100 U/ml penicillin, 100 μg/ml streptomycin and 10% heat-inactivated fetal calf serum (FCS). The cells are seeded at 20,000 cells/well into Becton-Dickinson black 384-well clear bottom sterile plates coated with poly-D-lysine. All reagents were from GIBCO-Invitrogen Corp. The seeded plates are incubated overnight at 37° C. and 5% CO2. Ala-6,12 human orexin-A as the agonist is prepared as a 1 mM stock solution in 1% bovine serum albumin (BSA) and diluted in assay buffer (HBSS containing 20 mM HEPES, 0.1% BSA and 2.5 mM probenecid, pH7.4) for use in the assay at a final concentration of 70 pM. Test compounds are prepared as 10 mM stock solution in DMSO, then diluted in 384-well plates, first in DMSO, then assay buffer. On the day of the assay, cells are washed 3 times with 100 μl assay buffer and then incubated for 60 min (37° C., 5% CO2) in 60 μl assay buffer containing 1 μM Fluo-4AM ester, 0.02% pluronic acid, and 1% BSA. The dye loading solution is then aspirated and cells are washed 3 times with 100 μl assay buffer. 30 μl of that same buffer is left in each well. Within the Fluorescent Imaging Plate Reader (FLIPR, Molecular Devices), test compounds are added to the plate in a volume of 25 μl, incubated for 5 min and finally 25 μl of agonist is added. Fluorescence is measured for each well at 1 second intervals for 5 minutes and the height of each fluorescence peak is compared to the height of the fluorescence peak induced by 70 pM Ala-6,12 orexin-A with buffer in place of antagonist. For each antagonist, IC50 value (the concentration of compound needed to inhibit 50% of the agonist response) is determined. Alternatively, compound potency can be assessed by a radioligand binding assay (described in Bergman et. al. Bioorg. Med. Chem. Lett. 2008, 18, 1425-1430) in which the inhibition constant (Ki) is determined in membranes prepared from CHO cells expressing either the OX1 or OX2 receptor. The intrinsic orexin receptor antagonist activity of a compound which may be used in the present invention may be determined by these assays.
as §1, with “buffer. […]” for “buffer.”
In general terms: Calcium assays in cells follow changes in intracellular calcium, usually with a dye or a luminescent sensor.

Consider `C[C@@H]1CC[C@@H](Oc2ncccc2[C@@H](C)O)CN1C(=O)c1ccccc1-n1nccn1` [Example 29, (1R)-1-(2-{[(3R,6R)-6-Methyl-1-{[2-(2H-1,2,3-triazol-2-yl)phenyl]carbonyl}piperidin-3-yl]oxy}pyridin-3-yl)ethanol], for which the IC50 in assay [1] is 1160 nM; in assay [2] it was 49 nM.
On the same counts, the results for `C[C@H](O)c1cccnc1O[C@@H]1CC[C@@H](C)N(C(=O)c2ccccc2-n2nccn2)C1` [Example 30, (1S)-1-(2-{[(3R,6R)-6-Methyl-1-{[2-(2H-1,2,3-triazol-2-yl)phenyl]carbonyl}piperidin-3-yl]oxy}pyridin-3-yl)ethanol] are 76 nM and 37 nM.
With `CC(O)c1cccnc1O[C@@H]1CC[C@@H](C)N(C(=O)c2ccccc2-n2nccn2)C1` (stereo partly drawn) [Example 31, 1-(2-{[(3R,6R)-6-methyl-1-{[2-(2H-1,2,3-triazol-2-yl)phenyl]carbonyl}piperidin-3-yl]oxy}pyridin-3-yl)ethanol], the concentration for half-maximal inhibition (IC50) in assay [1] was 65 nM; in assay [2] it was 27 nM.
On the same counts, the results for `CC[C@H](O)c1cccnc1O[C@@H]1CC[C@@H](C)N(C(=O)c2ccccc2-n2nccn2)C1` [Example 32, (1S)-1-(2-{[(3R,6R)-6-methyl-1-{[2-(2H-1,2,3-triazol-2-yl)phenyl]carbonyl}piperidin-3-yl]oxy}pyridin-3-yl)propan-1-ol] are 227 nM and 27 nM.
In the case of `CC[C@@H](O)c1cccnc1O[C@@H]1CC[C@@H](C)N(C(=O)c2ccccc2-n2nccn2)C1` [Example 33, (1R)-1-(2-{[(3R,6R)-6-methyl-1-{[2-(2H-1,2,3-triazol-2-yl)phenyl]carbonyl}piperidin-3-yl]oxy}pyridin-3-yl) propan-1-ol], the concentration for half-maximal inhibition (IC50) in assay [1] turned out to be 46 nM; in assay [2], 33 nM.
The like results for `C#C[C@H](O)c1cccnc1O[C@@H]1CC[C@@H](C)N(C(=O)c2ccccc2-n2nccn2)C1` [Example 34, (1S)-1-(2-{[(3R,6R)-6-methyl-1-{[2-(2H-1,2,3-triazol-2-yl)phenyl]carbonyl}piperidin-3-yl]oxy}pyridin-3-yl)prop-2-yn-1-ol] were, in that order, 584 nM and 26 nM.
On the same counts, the results for `C#C[C@@H](O)c1cccnc1O[C@@H]1CC[C@@H](C)N(C(=O)c2ccccc2-n2nccn2)C1` [Example 35, (1R)-1-(2-{[(3R,6R)-6-methyl-1-{[2-(2H-1,2,3-triazol-2-yl)phenyl]carbonyl}piperidin-3-yl]oxy}pyridin-3-yl)prop-2-yn-1-ol] are 64 nM and 27 nM.
The like results for `C[C@@H]1CC[C@@H](Oc2ncccc2[C@H](O)C(F)(F)F)CN1C(=O)c1ccccc1-n1nccn1` [Example 36, (1S)-2,2,2-Trifluoro-1-(2-{[(3R,6R)-6-methyl-1-{[2-(2H-1,2,3-triazol-2-yl)phenyl]carbonyl}piperidin-3-yl]oxy}pyridin-3-yl)ethanol] were, in that order, 904 nM and 24 nM.
In the case of `C[C@@H]1CC[C@@H](Oc2ncccc2[C@@H](O)C(F)(F)F)CN1C(=O)c1ccccc1-n1nccn1` [Example 37, (1R)-2,2,2-Trifluoro-1-(2-{[(3R,6R)-6-methyl-1-{[2-(2H-1,2,3-triazol-2-yl)phenyl]carbonyl}piperidin-3-yl]oxy}pyridin-3-yl)ethanol], the concentration for half-maximal inhibition (IC50) came out at 55 nM in assay [1] and 18 nM in assay [2].
The like results for `CC(O)c1c(C(F)(F)F)ccnc1O[C@@H]1CC[C@@H](C)N(C(=O)c2ccccc2-n2nccn2)C1` (stereo partly drawn) [Example 38, 1-[2-{[(3R,6R)-6-Methyl-1-{[2-(2H-1,2,3-triazol-2-yl)phenyl]carbonyl}piperidin-3-yl]oxy}-4-(trifluoromethyl)pyridin-3-yl]ethanol] were, in that order, 188 nM and 110 nM.
On the same counts, the results for `C[C@@H]1CC[C@@H](Oc2ncccc2CO)CN1C(=O)c1ccccc1-n1nccn1` [Example 39, (2-{[(3R,6R)-6-Methyl-1-{[2-(2H-1,2,3-triazol-2-yl)phenyl]carbonyl}piperidin-3-yl]oxy}pyridin-3-yl)methanol] are 925 nM and 18 nM.
The like results for `CCc1ccnc(O[C@@H]2CC[C@@H](C)N(C(=O)c3ccccc3-n3nccn3)C2)c1CO` [Example 40, (4-Ethyl-2-{[(3R,6R)-6-methyl-1-{[2-(2H-1,2,3-triazol-2-yl)phenyl]carbonyl}piperidin-3-yl]oxy}pyridin-3-yl)methanol] were, in that order, 103 nM and 17 nM.
Take `Cc1ccnc(O[C@@H]2CC[C@@H](C)N(C(=O)c3ccccc3-n3nccn3)C2)c1CO` [Example 41, (4-methyl-2-{[(3R,6R)-6-methyl-1-{[2-(2H-1,2,3-triazol-2-yl)phenyl]carbonyl}piperidin-3-yl]oxy}pyridin-3-yl)methanol]: the concentration for half-maximal inhibition (IC50) was 69 nM in assay [1] and 15 nM in assay [2].
